Measurements reported in US10577364B2, “Crystalline form of fused pyridine derivative's maleate and uses thereof” (priority 2015, dated 2020).

Legend:
[1] = Long term stability storage, XRPD; format: physicochemical; settings: 25° C.±2° C./RH60%±10%, aluminum-plastic composite film bag, 0 m to 36 ms
Description: About 500 g of the Crystalline Form of Formula I was placed into a bag of aluminum-plastic composite film, and the bag was stored under conditions of 25° C.±2° C./RH60%±10% for 0 m, 3 ms, 6 ms, 9 ms, 12 ms, 18 ms, 24 ms, or 36 ms.

[2] = Pharmacokinetic study, oral administration to fasted SD rats; settings: for AUC(0-inf) / AUC(0-t) / Cmax / Tmax / half-life: SD, rat, plasma, po, 50 mg/kg
Description: (§1) The Compound of Formula II and the Crystalline Form of Formula I were ground to fine particles. The material content (purity) was not less than 99.0%. Sodium carboxymethyl cellulose was medical supply graded.
(§2) Experimental animals: SD rats were divided to a Compound of Formula II group and a Crystalline Form of Formula I group, with both groups consisting of three males and three females.
(§3) Pharmaceutical preparation: each compound was formulated in 0.5% (w/v) aqueous sodium carboxymethyl cellulose and the final concentration of each compound was 10 mg/mL.
(§4) Administration and sample collection: each suspension was administered orally to fasted SD rats at a dose equivalent to 50 mg/kg the Compound of Formula II in a dose volume of 5 mL/kg. The blood samples were collected in EDTA-K pre anticoagulant tubes just before dosing (0 h) and at 0.5, 1, 1.5, 2, 4, 6, 8 and 24 hrs after dosing. The plasma from these samples was separated by centrifugation at 3000 rpm for 10 min at 4° C. The plasma samples were collected and stored at −80° C. until analysis.
(§5) Samples were analyzed by HPLC. Chemical ingredients were separated on a C18 DIKMA Platisil column (250×4.6 mm, 5 μm). An Isocratic mobile phase system consisting of acetonitrile-water (55:45) with 0.02 mol/L of sodium dihydrogen phosphate (adjusted pH to 6.0 by using sodium hydroxide solution) employed for sample analysis. The sample injection volume was 20 μL and the detection wavelength was 302 nm.

[3] = Thermodynamic stability, stress test storage, XRPD; format: physicochemical; settings: 40° C.±2° C./RH75%±5%, aluminum-plastic composite film bag, 0 m, 1 m, 2 ms, 3 ms, or 6 ms
Description: About 500 g of the Crystalline Form of Formula I was placed into a bag of aluminum-plastic composite film, and the bag was stored under stress test conditions of 40° C.±2° C./RH75%±5% for 0 m, 1 m, 2 ms, 3 ms, or 6 ms.

[4] = Kinetic solubility in H2O at RT; settings: for pH / Form Change: H2O, RT; for Form Change: residual solids by XRPD
Description: (§6) Kinetic solubility of the Crystalline Form of Formula I and N-(4-(2,3-dihydro-1H-pyrrolo[2,3-b]pyridin-4-yloxy)-3-fluorophenyl)-5-(4-fluorophenyl)-4-oxo-1,4-dihydropyridine-3-carboxamide (the Compound of Formula II) was studied in H2O at RT. After stirring approximate 4 mg solid in per 2 mL H2O at RT for a set amount of time, 0.6 mL suspension was centrifuged with the residual solids analyzed by XRPD and the concentrations in supernatants measured by high performance liquid chromatography (HPLC).

[5] = physchem; settings: water, thermodynamic from solid
Description: as §6

[6] = in vivo; settings: SD, rat, po, 50 mg/kg
Description: as §1, §2, §3, §4, §5

[7] = water, thermodynamic from solid

O=C(Nc1ccc(Oc2ccnc3c2CCN3)c(F)c1)c1c[nH]cc(-c2ccc(F)cc2)c1=O.O=C(O)/C=C\C(=O)O [The Crystalline Form of Formula I, N-(4-(2,3-dihydro-1H-pyrrolo[2,3-b]pyridin-4-yloxy)-3-fluorophenyl)-5-(4-fluorophenyl)-4-oxo-1,4-dihydropyridine-3-carboxamide maleate]
Crystalline Form determined by XRPD after storage (long term stability) [1]: purely the Crystalline Form of formula I
Absorption compared with the Compound of Formula II ([2]; SD rats, oral, dose equivalent to 50 mg/kg the Compound of Formula II): higher absorption than the Compound of Formula II
Crystalline Form determined by XRPD after storage (thermodynamic stability) [3]: purely the Crystalline Form of formula I
pH ([4]; 1 h): 4.3
Form Change ([4]; 1 h): No
pH ([4]; 4 hrs): 4.1
Form Change ([4]; 4 hrs): No
pH ([4]; 24 hrs): 3.8
Form Change ([4]; 24 hrs): No
solubility kinetic at 1 h [5]: 59 µg/mL
solubility kinetic at 4 h [5]: 47.8 µg/mL
solubility kinetic at 24 h [5]: 98.3 µg/mL
AUC(0-inf) ([6]; female): 49300 ± 22200 ng·h/mL
AUC(0-t) ([6]; female): 46400 ± 21600 ng·h/mL
Cmax ([6]; female): 7500 ± 700 ng/mL
Tmax ([6]; female): 2 h
half-life ([6]; female): 3.7 ± 2.8 h
AUC(0-inf) ([6]; male): 17000 ± 6100 ng·h/mL
AUC(0-t) ([6]; male): 15900 ± 5100 ng·h/mL
Cmax ([6]; male): 3900 ± 700 ng/mL
Tmax ([6]; male): 2.7 ± 1.2 h
half-life ([6]; male): 1.7 ± 0.9 h

O=C(Nc1ccc(Oc2ccnc3c2CCN3)c(F)c1)c1c[nH]cc(-c2ccc(F)cc2)c1=O [The Compound of Formula II, N-(4-(2,3-dihydro-1H-pyrrolo[2,3-b]pyridin-4-yloxy)-3-fluorophenyl)-5-(4-fluorophenyl)-4-oxo-1,4-dihydropyridine-3-carboxamide]
AUC(0-inf) ([2]; female): 18200 ± 4600 ng·h/mL
AUC(0-t) ([2]; female): 9700 ± 6300 ng·h/mL
Cmax ([2]; female): 1900 ± 1100 ng/mL
Tmax ([2]; female): 6 ± 2 h
half-life ([2]; female): 4.7 ± 3.7 h
AUC(0-inf) ([2]; male): 17100 ± 7000 ng·h/mL
AUC(0-t) ([2]; male): 10100 ± 2900 ng·h/mL
Cmax ([2]; male): 2200 ± 600 ng/mL
Tmax ([2]; male): 4.5 ± 2.6 h
half-life ([2]; male): 6.4 ± 2.6 h
pH ([4]; 1 h): 7.2
Form Change ([4]; 1 h): No
pH ([4]; 4 hrs): 7.3
Form Change ([4]; 4 hrs): No
pH ([4]; 24 hrs): 7.3
Form Change ([4]; 24 hrs): No
solubility kinetic at 1 h [4, 7]: 0.8 µg/mL
solubility kinetic at 4 h [4, 7]: 1.1 µg/mL
solubility kinetic at 24 h [4, 7]: 0.5 µg/mL
